Test results: patent US20160297763A1, “Heteroaryl hydroxamic acid derivatives and their use in the treatment, amelioration or prevention of a viral disease” (priority 2011, published 2016)
Where a name gives a salt, the structure may show the parent alone. Read-outs that look alike come from different tables or passages of the source.

Assays:
[1] = system: influenza A virus A/Aichi/2/68 (H3N2); assay: Cytopathic effect (CPE) assay H3N2; format: cell-based, influenza A virus (H3N2) on MDCK cells; details: for inhibition at 50 µM: H3N2, activity conc 50 (μM per method); for inhibition at 20 µM: H3N2, activity conc 20 (μM per method); for inhibition at 5 µM: H3N2, activity conc 5 (μM per method)
Method: A possible measure of the […] antiviral activity of the compounds having the formula I or II is the CPE assay disclosed herein. […] In this connection, the reduction in the virus-mediated cytopathic effect (CPE) upon treatment with the compounds was calculated as follows: The cell viability of infected-treated and uninfected-treated cells was determined using an ATP-based cell viability assay (Promega). The response in relative luminescent units (RLU) of infected-untreated samples was subtracted from the response (RLU) of the infected-treated samples and then normalized to the viability of the corresponding uninfected sample resulting in % CPE reduction.
The influenza A virus (IAV) was obtained from American Tissue Culture Collection (A/Aichi/2/68 (H3N2); VR-547). Virus stocks were prepared by propagation of virus on Mardin-Darby canine kidney (MDCK; ATCC CCL-34) cells and infectious titres of virus stocks were determined by the 50% tissue culture infective dose (TCID50) analysis as described in Reed, L. J., and H. Muench. 1938, Am. J. Hyg. 27:493-497.
MDCK cells were seeded in 96-well plates at 2×10^4 cells/well using DMEM/Ham's F-12 (1:1) medium containing 10% foetal bovine serum (FBS), 2 mM L-glutamine and 1 antibiotics (all from PAA). Until infection the cells were incubated for 5 hrs at 37° C., 5.0 CO2 to form a ˜80% confluent monolayer on the bottom of the well. Each test compound was dissolved in DMSO and generally tested at 25 μM and 250 μM. In those cases where the compounds were not soluble at that concentration they were tested at the highest soluble concentration. The compounds were diluted in infection medium (DMEM/Ham's F-12 (1:1) containing 5 μg/ml trypsin, and 1% antibiotics) for a final plate well DMSO concentration of 1%. The virus stock was diluted in infection medium (DMEM/Ham's F-12 (1:1) containing 5 μg/ml Trypsin, 1% DMSO, and 1% antibiotics) to a theoretical multiplicity of infection (MOI) of 0.05.
After removal of the culture medium and one washing step with PBS, virus and compound were added together to the cells. In the wells used for cytotoxicity determination (i.e. in the absence of viral infection), no virus suspension was added. Instead, infection medium was added. Each treatment was conducted in two replicates. After incubation at 37° C., 5% CO2 for 48 hrs, each well was observed microscopically for apparent cytotoxicity, precipitate formation, or other notable abnormalities. Then, cell viability was determined using CellTiter-Glo luminescent cell viability assay (Promega). The supernatant was removed carefully and 65 μl of the reconstituted reagent were added to each well and incubated with gentle shaking for 15 min at room temperature. Then, 60 μl of the solution was transferred to an opaque plate and luminescence (RLU) was measured using Synergy HT plate reader (Biotek).
Relative cell viability values of uninfected-treated versus uninfected-untreated cells were used to evaluate cytotoxicity of the compounds. Substances with a relative viability below 80% at the tested concentration were regarded as cytotoxic and retested at lower concentrations.
Reduction in the virus-mediated cytopathic effect (CPE) upon treatment with the compounds was calculated as follows: The response (RLU) of infected-untreated samples was subtracted from the response (RLU) of the infected-treated samples and then normalized to the viability of the corresponding uninfected sample resulting in % CPE reduction.

[2] = biological target: PB2 cap binding domain (CBD) (Influenza A virus, UniProt Q9Q0V1); assay: biochemical; set-up: species or system avian H5N1 influenza virus
[3] = Influenza A virus, read-out: CPE H3N2 reduction (%)
[4] = Influenza A virus, H3N2, read-out: CPE H3N2 IC50

Sequence of PB2 cap binding domain (CBD) (Q9Q0V1 318-483 limits assumed): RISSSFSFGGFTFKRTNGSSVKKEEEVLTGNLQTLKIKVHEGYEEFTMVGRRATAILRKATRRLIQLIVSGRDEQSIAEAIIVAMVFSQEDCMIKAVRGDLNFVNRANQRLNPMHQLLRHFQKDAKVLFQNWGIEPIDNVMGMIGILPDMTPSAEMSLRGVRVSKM

## O=C(c1cc(N2CCOCC2)ccn1)N(O)Cc1ccccc1
other
  melting point: 105 to 110 °C

## Cl.O=C(c1cc(N2CCOCC2)ccn1)N(O)Cc1ccccc1
other
  melting point: 185 to 190 °C

## O=C(c1ccc(N2CCCCC2)cn1)N(O)Cc1ccccc1
other
  melting point: 110 to 115 °C

## CCONC(=O)c1ccc(-c2ccccc2)cn1
other
  melting point: 100 to 105 °C

## Cc1c(Cc2ccccc2)sc2nc(N)[nH]c(=O)c12
other
  melting point: 292 to 294 °C

## O=C(c1cc2ccccc2cn1)N(Cc1ccccc1)OCc1ccccc1
other
  melting point: 70 to 75 °C

## Cc1c(-c2ccc(F)cc2)sc2nc(N)[nH]c(=O)c12
other
  melting point: 325 to 335 °C

## Cc1c(-c2ccc(Cl)c(O)c2)sc2nc(N)[nH]c(=O)c12
other
  melting point: > 350 °C

## CC(C)c1cccc(-c2ccc(C(=O)N(O)CCc3ccccc3)nc2)c1
other
  melting point: 110 to 115 °C

## Cc1c(-c2cccc(C#N)c2)sc2nc(N)[nH]c(=O)c12
other
  melting point: > 350 °C

## Cc1c(-c2ccc(Cl)c(C#N)c2)sc2nc(N)[nH]c(=O)c12
other
  melting point: > 360 °C

## Cc1c(-c2cc(C#N)ccc2F)sc2nc(N)[nH]c(=O)c12
other
  melting point: 332 to 336 °C

## Cc1c(-c2cc(C(F)(F)F)cc(C(F)(F)F)c2)sc2nc(N)[nH]c(=O)c12
other
  melting point: 344 to 347 °C

## Cc1c(-c2cc(CN(C)C)ccc2F)sc2nc(N)[nH]c(=O)c12
other
  melting point: 230 to 250 °C

## Cc1c(-c2ccc(Cl)nc2)sc2nc(N)[nH]c(=O)c12
other
  melting point: 230 to 250 °C

## Cl.O=C(NO)c1cc(NS(=O)(=O)Cc2ccccc2F)ccn1
other
  melting point: 209 to 216 °C

## Cc1sc2nc(N)[nH]c(=O)c2c1-c1ccc(F)cc1
other
  melting point: 360 to 362 °C

## Cc1c(-c2ccccc2)sc2nc(NCCN)[nH]c(=O)c12
other
  melting point: 192 to 194 °C

## Cl.O=C(NO)c1cc(NS(=O)(=O)Cc2cccc3cccnc23)ccn1
other
  melting point: 220 to 228 °C

## Cc1c(-c2ccccc2)sc2nc(NC3CCCCC3)[nH]c(=O)c12
other
  melting point: 265 to 270 °C

## Cl.O=C(c1cc(NS(=O)(=O)Cc2ccc(F)cc2)ccn1)N(O)Cc1ccccc1
other
  melting point: 178 to 183 °C

## Nc1nc2sc(Cc3ccccc3)cc2c(=O)[nH]1
other
  melting point: 294 to 296 °C

## O=C(c1cc(-c2ccccc2)ccn1)N(O)Cc1ccccc1
other
  melting point: 160 to 165 °C

## O=C(c1cc(C2CCCCC2)ccn1)N(O)Cc1ccccc1
other
  melting point: 106 to 110 °C

## O=C(c1cc2ccccc2cn1)N(O)Cc1ccccc1
other
  melting point: 120 to 125 °C

## O=C(c1cc(C2=CC3CCC(C2)N3)ccn1)N(O)Cc1ccccc1 (stereo not drawn)
other
  melting point: 95 to 100 °C

## O=C(c1cc(C2=CCNCC2)ccn1)N(O)Cc1ccccc1 (as salt: hydrochloride)
other
  melting point: 140 to 150 °C

## Cl.O=C(NO)c1cc(N2CCCCC2)ccn1 (hydrate or solvate)
other
  melting point: 200 to 202 °C

## CCONC(=O)c1cc(NCC2CCN(Cc3ccccc3)CC2)ccn1.Cl.Cl (hydrate or solvate)
other
  melting point: 125 to 130 °C

## CCONC(=O)c1ccc(-c2cccc(CN(C)Cc3ccccc3)c2)cn1.Cl (hydrate or solvate)
other
  melting point: 85 to 90 °C

## CCONC(=O)c1cc(N2CCOCC2)ccn1.Cl (hydrate or solvate)
other
  melting point: 200 to 202 °C

## CCONC(=O)c1cc(N)ccn1.Cl (hydrate or solvate)
other
  melting point: 114 to 120 °C

## Nc1nc2sc(Cc3ccccc3)cc2c(=O)[nH]1 [SAV-7517]
[1]; Influenza A virus, H3N2, activity conc 10 (μM per method), read-out: CPE H3N2 reduction (%)
  inhibition at 10 µM: -2.64%
[2]
  Kd: 13 µM

## Cc1c(Cc2ccccc2)sc2nc(N)[nH]c(=O)c12 [SAV-7521]
[1]; Influenza A virus, H3N2, activity conc 25 (μM per method), read-out: CPE H3N2 reduction (%)
  inhibition at 25 µM: 33.6%
[2]
  Kd: 6 µM

## Nc1nc2sc(-c3ccccc3)cc2c(=O)[nH]1 [SAV-7549]
[1]; [3]
  inhibition at 50 µM: -2.4%
[2]
  Kd: 8.8 µM

## COc1ccc(-c2sc3nc(N)[nH]c(=O)c3c2C)cc1 [SAV-7575]
[1]; [3]
  inhibition at 20 µM: 9.02%
[2]
  Kd: 4 µM

## Cc1c(-c2ccccc2)sc2nc(NCCO)[nH]c(=O)c12 [SAV-7577]
[1]; [3]
  inhibition at 20 µM: 2.85%
[2]
  Kd: 6.8 µM

## Cc1c(-c2ccc(Cl)cc2)sc2nc(N)[nH]c(=O)c12 [SAV-7579]
[1]; [3]
  inhibition at 20 µM: 11.3%
[2]
  Kd: 0.27 µM

## Cc1c(-c2cccc(Cl)c2)sc2nc(N)[nH]c(=O)c12 [SAV-7580]
[1]; Influenza A virus, H3N2, read-out: CPE H3N2 IC50 [μM]
  IC50: 11 µM
[1]; activity conc 2 (μM per method)
  CPE H3N2 reduction (%): 89.8%
[2]
  Kd: 8.9 µM

## Cc1c(-c2cccc(C(F)(F)F)c2)sc2nc(N)[nH]c(=O)c12 [SAV-7581]
[1]; [3]
  inhibition at 50 µM: 87.8%
[1]; [4]
  IC50: 17 µM
[2]
  Kd: 1.4 µM

## Cc1c(-c2ccccc2)sc2nc(NCCCO)[nH]c(=O)c12 [SAV-7582]
[1]; [3]
  inhibition at 50 µM: 53.1%
[2]
  Kd: 4.2 µM

## Cc1c(-c2ccccc2)sc2nc(NCCN(C)C)[nH]c(=O)c12 [SAV-7583]
[2]
  Kd: 68 µM

## Cc1ccc(-c2sc3nc(N)[nH]c(=O)c3c2C)cc1 [SAV-7585]
[1]; Influenza A virus, H3N2, activity conc 2.5 (μM per method), read-out: CPE H3N2 reduction (%)
  inhibition at 2.5 µM: 28.9%
[1]; [4]
  IC50: 3.5 µM
[2]
  Kd: 2 µM

## Cc1c(-c2ccncc2)sc2nc(N)[nH]c(=O)c12 [SAV-7586]
[1]; Influenza A virus, H3N2, activity conc 15 (μM per method), read-out: CPE H3N2 reduction (%)
  inhibition at 15 µM: 81.2%
[1]; [4]
  IC50: 5.3 µM
[2]
  Kd: 12 µM

## Cc1c(-c2cccnc2)sc2nc(N)[nH]c(=O)c12 [SAV-7589]
[1]; [3]
  inhibition at 50 µM: 63.1%
[1]; [4]
  IC50: 27 µM
[2]
  Kd: 10 µM

## Cc1c(-c2cccc(C#N)c2)sc2nc(N)[nH]c(=O)c12 [SAV-7594]
[1]; [3]
  inhibition at 5 µM: 14.5%
[1]; [4]
  IC50: 14 µM
[2]
  Kd: 2 µM

## Cc1ccccc1-c1sc2nc(N)[nH]c(=O)c2c1C [SAV-7596]
[1]; [3]
  inhibition at 5 µM: 13.6%
[2]
  Kd: 11 µM

## Cc1c(-c2ccccc2F)sc2nc(N)[nH]c(=O)c12 [SAV-7598]
[1]; Influenza A virus, H3N2, activity conc 2 (μM per method), read-out: CPE H3N2 reduction (%)
  inhibition at 2 µM: 11.4%
[2]
  Kd: 3.7 µM

## Cc1c(-c2cccc(C(N)=O)c2)sc2nc(N)[nH]c(=O)c12 [SAV-7599]
[1]; [3]
  inhibition at 20 µM: -0.7%
[2]
  Kd: 5.3 µM

## Cc1c(-c2cc(C(F)(F)F)cc(C(F)(F)F)c2)sc2nc(N)[nH]c(=O)c12 [SAV-7600]
[1]; Influenza A virus, H3N2, read-out: CPE H3N2 reduction (%), activity conc 2 (μM per method)
  inhibition at 2 µM: 5.8%
[2]
  Kd: 3.8 µM

## Cc1c(-c2ccc(F)cc2)sc2nc(N)[nH]c(=O)c12 [SAV-7601]
[1]; [3]
  inhibition at 50 µM: 69.2%
[2]
  Kd: 1.1 µM

## Cc1c(-c2ccc(Cl)c(C#N)c2)sc2nc(N)[nH]c(=O)c12 [SAV-7602]
[1]; [3]
  inhibition at 20 µM: 67.9%
[2]
  Kd: 1.7 µM

## Cc1c(-c2cnn(C)c2)sc2nc(N)[nH]c(=O)c12 [SAV-7603]
[2]
  Kd: 42 µM
